Experiments:
[1] = system: Panc-02 cells; test: Cytotoxicity, LDH assay, Panc-02 cells; type: cell-based, mouse; details: 48 h
Procedure: The cytotoxic activity of Gem-DHA was also evaluated using an LDH assay kit (Takara Clontech). Panc-02 cells were seeded in 96-well plates at 1,500 cells/well and incubated at 37° C. and 5% CO2 for 24 h, followed by treatment with Gem-DHA or gemcitabine HCl as mentioned above for 48 h. LDH activity in the cell culture medium was determined following the manufacturer's instruction.

[2] = system: Panc-1-Luc human pancreatic cells; test: Anti-proliferative activity, MTT assay, Panc-1-Luc cells; type: cell-based; details: 72 h
Procedure: The anti-proliferative activity of Gem-DHA was evaluated in Panc-02, TC-1, Panc-1-Luc, and BxPC-3 cell lines. For Panc-02 and TC-1 cells, cells (1,500/well for Panc-02 and 3,000/well for TC-1) were seeded in 96-well plates and incubated at 37° C. and 5% CO2 overnight. The cells were then treated with various concentrations of Gem-DHA or other compounds for 24 h. For BxPC-3 and Panc-1-Luc cells, 3,000 and 1,000 cells/well were used, respectively, and cells were co-incubated with the Gem-DHA for 72 h. Cell viability was determined using an MTT assay as previously described (Naguib YW et al. Mol Pharm. 2014, 11(4), 1239-1249). Gemcitabine HCl was dissolved in cell culture medium, whereas Gem-DHA and DHA were dissolved in dimethylsulfoxide (DMSO). The values of IC50 were calculated using GraphPad Prism (GraphPad software, Inc., La Jolla, CA).

[3] = Octanol-water (PBS 7.4) partition coefficient; type: physicochemical; details: in octanol under the test conditions
Procedure: The octanol-water partition coefficient of Gem-DHA was determined using a previously reported method with minor modifications (Hsu CH et al. Pharm Res. 2003, 20(6), 918-925). Briefly, octanol and PBS (7.4, 0.01 M) were mutually saturated for 24 h. Gem-DHA was dissolved in octanol (0.4 mg/ml, PBS-saturated) and 10 μl of the solution were withdrawn and diluted with methanol to measure Gem-DHA concentration using HPLC (C1) PBS was added to octanol at a volume ratio (VPBS/Voct) of 20:1 into a sealed vial under nitrogen, and the mixture was agitated vigorously at room temperature using a horizontal orbital shaker at 250 rpm (Max Q 2000, Thermo Scientific, Waltham, Mass.) while protected from light. After 5 h, the mixture was centrifuged (14,000 rpm, 15 min) and the concentration of Gem-DHA in the octanol layer was determined using HPLC (C2). Partition coefficient (Koctiwater) was calculated using the following equation: […]
The partition coefficient (octanol/PBS 7.4) of Gem-DHA was also measured using an indirect method by determining the concentration of the drug in octanol, before and after partitioning.

[4] = system: Kras-Ink4a mice that spontaneously develop pancreatic tumors; test: Survival of Kras-Ink4a mice, genetically modified model of pancreatic cancer; type: in vivo, mouse; details: i.p., 50 mg/kg
Procedure: Finally, the antitumor activity of Gem-DHA was also evaluated in a genetically modified mouse model of pancreatic cancer. Female Kras-Ink4a mice that spontaneously develop pancreatic tumors were obtained from Dr. Stephen Hursting's lab at the University of Texas at Austin (Lashinger L et al. Cancer Prevention Research. 2013, 6(10), 1046-1055). […] On the 20th week, one group of mice (n=5) started to receive Gem-DHA (50 mg/kg, in Tween 80/ethanol/water solution with 5% (w/v) of mannitol) by i.p. injection. The injection was repeated twice a week, once a week for the last 5 doses, for a total of 29 times. As a control, another group of mice (n=6) were left untreated. […] Shown in FIG. 15 are the survival curves of mice treated with Gem-DHA or left untreated. […] The median survival time of mice that were treated with Gem-DHA was 280 days, in comparison to 172 days for mice that were left untreated (p=0.01, Log-rank (Mantel-Cox) test).

SMILES: CC/C=C\C/C=C\C/C=C\C/C=C\C/C=C\C/C=C\CCC(=O)Nc1ccn(C2OC(CO)C(O)C2(F)F)c(=O)n1 (centres unmarked) [Gem-DHA, 4-(N)-Docosahexaenoyl Difluorodeoxycytidine]
- Cytotoxicity, LDH assay (comparison) [1]: more cytotoxic than gemcitabine HCl
- Inhibition of tumor cell growth (comparison) [2]: more effective than gemcitabine alone or the physical mixture of gemcitabine and DHA
- Time stable in octanol [3]: at least 18 h
- Median survival time ([4]; 29 injections from week 20, untreated 172 days, p=0.01): 280 days
- Survival of the mice ([4]; versus untreated): significantly prolonged the survival
